From patent publication US10888588B2, “Directed cardiomyocyte differentiation and ventricular specification of stem cells” (ICAHN SCHOOL OF MEDICINE AT MOUNT SINAI, priority 2013, dated 2021)

Columns and labels:
[1] = system: HES2-VCMs; conditions: H2O2 100 μM, 30 minutes, 37° C.; ratio before stress 1.146
Protocol: Mitochondrial membrane potential in HES2-VCMs was measured with the potential-sensitive dye JC-1 (Invitrogen). LV-MLC2v-Tdtomato-T2A-Zeo transduced and Zeo-selected HES2-VCMs (30- to 50-day-old) were incubated at 37° C. with 0.5 μM JC-1 in serum free DMEM medium for 15 minutes. To simulate metabolic oxidative stress, hES2-VCMs were treated with hydrogen peroxide (H2O2; 100 μM) for 30 minutes at 37° C., after which JC-1 orange and green fluorescence intensities were measured for mitochondrial membrane potential with a LSM Carl Zeiss 510 Meta microscope.

[2] = system: hESC-VCMs; test: Patch-clamp AP recording and confocal Ca2+ imaging of hESC-VCMs; format: cell-based, human
Protocol: The electrophysiological experiments disclosed in the Examples were performed using the whole-cell patch-clamp technique as previously described.^65-67 To profile chamber-specific subtypes of the hPSC-CMs, action potentials of the myocytes were randomly probed at 37° C. with the patch-clamp technique using an EPC-10 amplifier and Pulse software (Heka Elektronik, Germany), with the current-clamp mode (0.1-0.5 nA for 1-5 ms) under the whole-cell configuration applied. The hPSC-CMs were categorized into nodal-, atrial- or ventricular-like, as previously described.^62,65,66 Voltage-clamp recordings of ionic currents were performed using an automated parallel patch-clamp system (PatchXpress 7000A, Molecular Devices) using standard electrophysiological and pharmacological protocols for isolating the ionic component of interest.
Intracellular Ca^2+ ([Ca^2+]i) transients were imaged by a spinning disc laser confocal microscope (PerkinElmer) on hPSC-CMs loaded with 1.5 μM X-Rhod-1 (Invitrogen) as previously described^66. After dye loading, experiments were performed at 37° C. in Tyrode's solution containing: 140 mM NaCl, 5 mM KCl, 1 mM MgCl2, 1.25 mM CaCl2, 10 mM HEPES and 10 mM D-glucose at pH 7.4. […] The amplitudes of E[Ca^2+]i are presented as the background corrected pseudo ratio (ΔF/F)=(F−Fbase)/(Fbase−B) where Fbase and F is the measured fluorescence intensity before and after stimulation, respectively, and B is the average background signal from areas adjacent to the targeted cell. The transients rise (Vupstroke) and the transients decay (Vdecay) were subsequently calculated and analyzed.
Initially, electrophysiological profiles were obtained and analyzed from patch-clamp recordings and Ca^2+-imaging performed on 30- to 50-day-old single cells isolated from cardiogenic EBs.

[3] = system: hPSC; conditions: cited from earlier work
[4] = system: Wnt/β-catenin pathway; test: Directed differentiation to ventricular cardiomyocytes with Wnt inhibition; format: cell-based, human
Source text: (§1) As detailed in the following examples, cardiac differentiation was initiated by formation of embryoid bodies (EBs) in suspension culture from hESCs as exemplary stem cells, maintained in feeder-free, serum-free culture. […] In the first phase of the differentiation process (Stage 1; days 2-4.5), the cells were differentiated into primitive streak-mesendoderm and subsequently to cardiac mesoderm by the combinatorial activation of the BMP and Nodal signaling pathways. In the second phase (Stage 2; days 4.5-8) the inhibition of the Wnt/β-catenin pathway by the small molecule IWR-1^29 enhanced the differentiation of the cardiac progenitors to the ventricular cardiomyocyte lineage.
For directed cell differentiation, undifferentiated hPSCs were digested into smaller clusters using Dispase (STEMCELL Technologies; 1 mg/ml for 8 minutes at 37° C.) and seeded onto Matrigel™-coated plates at 3×10^4 cells/ml in mTeSR™ 1 medium for 4 days until there was about 80-90% confluence on D0. To initiate cardiac differentiation, hPSCs were digested into single cell suspensions using Accutase (Invitrogen) and cultured in mTeSR™ 1 medium with Matrigel™ (40 μg/ml) with BMP-4 (1 ng/ml, Invitrogen) and Rho kinase inhibitor (ROCK) Inhibitor (10 μM; R&D) under a hypoxic condition with 5% O2. […] Cardiac mesodermal cells developed into functional contracting clusters could be detected as early as day 8. […]

[5] = system: hESCs; test: Embryoid body formation from dissociated hESCs; format: cell-based, human; conditions: EB formation in suspension culture
Source text: as §1

OO [H2O2, hydrogen peroxide]
JC-1 orange/green intensity ratio [1]: 0.410

Cn1c(=O)c2c(ncn2C)n(C)c1=O [caffeine]
caffeine-induced Ca2+ flux (functional sarcoplasmic reticulum) [2]: observed

COc1ccc(CCC(=O)Nc2nc3ccc(Cl)cc3s2)cc1OC [KY02111]
hPSC-CM per hPSC ([3]; about 4.2×10^6 hPSC-CM from about 6×10^6 seeded per well): 0.7 hPSC-CM per hPSC
yield of CM from hPSC differentiation ([3]; serum- and xeno-free, four hiPSC lines, by inhibiting WNT signaling): up to 98%

CC(C)NCC(O)c1ccc(O)c(O)c1 (stereo not shown) [isoproterenol]
chronotropic response (spontaneous AP and Ca2+ transient firings) ([2]; 30- to 50-day-old single cells, β-adrenergic stimulation): positive chronotropic response
Ca2+ transient amplitude (ionotropic response) ([2]; β-adrenergic stimulation, p>0.05): remained unchanged

O=C(Nc1cccc2cccnc12)c1ccc(N2C(=O)[C@@H]3[C@H](C2=O)[C@@H]2C=C[C@H]3C2)cc1 [IWR-1]
differentiation of cardiac progenitors to the ventricular cardiomyocyte lineage ([4]; Stage 2, days 4.5-8): enhanced
heterogeneity of the hESC-derived cardiomyocytes ([4]; timely inhibition of Wnt/β-catenin pathway): reduced

Cc1ccc2c(c1)C(=O)C1(O)CCN(c3ccccc3)C1=N2 (stereo not shown) [blebbistatin]
EB formation efficiency [5]: significantly increased
dissociation-induced apoptosis of hESCs [5]: inhibited
